Legend:
[1] = biological target: Serine/threonine-protein kinase SIK1 (Homo sapiens) (UniProt P57059); conditions: Compound concentration 1000.0 nM
[2] = biological target: Death-associated protein kinase 2 (Homo sapiens) (UniProt Q9UIK4); conditions: Compound concentration 1000.0 nM
[3] = biological target: Mitogen-activated protein kinase kinase kinase 11 (Homo sapiens) (UniProt Q16584); conditions: Compound concentration 1000.0 nM
[4] = biological target: Fibroblast growth factor receptor 3 (Homo sapiens) (UniProt P22607); conditions: Compound concentration 1000.0 nM
[5] = biological target: Tyrosine-protein kinase CSK (Homo sapiens) (UniProt P41240); conditions: Compound concentration 1000.0 nM
[6] = biological target: 5-hydroxytryptamine receptor 5A (Homo sapiens) (UniProt P47898); conditions: Compound concentration 10.0 uM
[7] = tested on: Receptor-type tyrosine-protein kinase FLT3 (Homo sapiens), P36888 [UNDEFINED MUTATION]; conditions: Compound concentration 1000.0 nM
[8] = biological target: Microtubule-associated serine/threonine-protein kinase 1 (Homo sapiens) (UniProt Q9Y2H9); conditions: Compound concentration 1000.0 nM
[9] = biological target: Mitogen-activated protein kinase kinase kinase kinase 3 (Homo sapiens) (UniProt Q8IVH8); conditions: Compound concentration 1000.0 nM
[10] = biological target: Activin receptor type-1-like (Homo sapiens) (UniProt P37023); conditions: Compound concentration 1000.0 nM
[11] = biological target: Serine/threonine-protein kinase Chk1 (Homo sapiens) (UniProt O14757); conditions: Compound concentration 1000.0 nM
[12] = biological target: Citron Rho-interacting kinase (Homo sapiens) (UniProt O14578); conditions: Compound concentration 1000.0 nM
[13] = biological target: Muscarinic acetylcholine receptor M4 (Homo sapiens) (UniProt P08173); conditions: Compound concentration 10.0 uM
[14] = biological target: Macrophage colony-stimulating factor 1 receptor (Homo sapiens) (UniProt P07333); conditions: Compound concentration 1000.0 nM
[15] = biological target: Ephrin type-A receptor 1 (Homo sapiens) (UniProt P21709); conditions: Compound concentration 1000.0 nM
[16] = biological target: Serine/threonine-protein kinase MRCK beta (Homo sapiens) (UniProt Q9Y5S2); conditions: Compound concentration 1000.0 nM
[17] = tested on: Tyrosine-protein kinase ABL1 (Homo sapiens), P00519 [F317I]; conditions: Compound concentration 1000.0 nM
[18] = biological target: Phosphatidylinositol 4-phosphate 5-kinase type-1 alpha (Homo sapiens) (UniProt Q99755); conditions: Compound concentration 1000.0 nM
[19] = biological target: cAMP-dependent protein kinase catalytic subunit beta (Homo sapiens) (UniProt P22694); conditions: Compound concentration 1000.0 nM
[20] = biological target: Activated CDC42 kinase 1 (Homo sapiens) (UniProt Q07912); conditions: Compound concentration 1000.0 nM
[21] = biological target: Rho-associated protein kinase 2 (Homo sapiens) (UniProt O75116); conditions: Compound concentration 1000.0 nM
[22] = biological target: Serine/threonine-protein kinase PAK 2 (Homo sapiens) (UniProt Q13177); conditions: Compound concentration 1000.0 nM
[23] = biological target: Mitotic checkpoint serine/threonine-protein kinase BUB1 (Homo sapiens) (UniProt O43683); conditions: Compound concentration 1000.0 nM
[24] = biological target: Activin receptor type-1 (Homo sapiens) (UniProt Q04771); conditions: Compound concentration 1000.0 nM
[25] = biological target: Vascular endothelial growth factor receptor 1 (Homo sapiens) (UniProt P17948); conditions: Compound concentration 1000.0 nM
[26] = biological target: Muscarinic acetylcholine receptor M3 (Homo sapiens) (UniProt P20309); conditions: Compound concentration 10.0 uM
[27] = biological target: Phosphatidylinositol 4,5-bisphosphate 3-kinase catalytic subunit alpha isoform (Homo sapiens) (UniProt P42336); conditions: Compound concentration 1000.0 nM
[28] = biological target: Casein kinase I isoform gamma-1 (Homo sapiens) (UniProt Q9HCP0); conditions: Compound concentration 1000.0 nM
[29] = tested on: Phosphatidylinositol 4,5-bisphosphate 3-kinase catalytic subunit alpha isoform (Homo sapiens), P42336 [H1047L]; conditions: Compound concentration 1000.0 nM
[30] = biological target: Serine/threonine-protein kinase pim-1 (Homo sapiens) (UniProt P11309); conditions: Compound concentration 1000.0 nM
[31] = biological target: Calcium/calmodulin-dependent protein kinase type II subunit beta (Homo sapiens) (UniProt Q13554); conditions: Compound concentration 1000.0 nM
[32] = biological target: Ribosomal protein S6 kinase beta-1 (Homo sapiens) (UniProt P23443); conditions: Compound concentration 1000.0 nM
[33] = biological target: Cyclin-dependent kinase-like 3 (Homo sapiens) (UniProt Q8IVW4); conditions: Compound concentration 1000.0 nM
[34] = biological target: GABA-A receptor; anion channel (Rattus norvegicus) (UniProt O09028+P15431+P18506+P18508+P19969+P20236+P23574+P23576+P28471+P28473+P30191+P62813+P63079+P63138+Q91ZM7+Q9ES14); conditions: Compound concentration 10.0 uM
[35] = biological target: TGF-beta receptor type-1 (Homo sapiens) (UniProt P36897); conditions: Compound concentration 1000.0 nM
[36] = biological target: 5'-AMP-activated protein kinase catalytic subunit alpha-2 (Homo sapiens) (UniProt P54646); conditions: Compound concentration 1000.0 nM
[37] = biological target: Tyrosine-protein kinase FRK (Homo sapiens) (UniProt P42685); conditions: Compound concentration 1000.0 nM
[38] = biological target: Ribosomal protein S6 kinase alpha-1 (Homo sapiens) (UniProt Q15418); conditions: Compound concentration 1000.0 nM
[39] = biological target: Casein kinase II subunit alpha (Homo sapiens) (UniProt P68400); conditions: Compound concentration 1000.0 nM
[40] = biological target: Serine/threonine-protein kinase Sgk1 (Homo sapiens) (UniProt O00141); conditions: Compound concentration 1000.0 nM
[41] = biological target: Epithelial discoidin domain-containing receptor 1 (Homo sapiens) (UniProt Q08345); conditions: Compound concentration 1000.0 nM
[42] = biological target: Ephrin type-B receptor 6 (Homo sapiens) (UniProt O15197); conditions: Compound concentration 1000.0 nM
[43] = tested on: Tyrosine-protein kinase ABL1 (Homo sapiens), P00519 [H396P]; conditions: Compound concentration 1000.0 nM

Sequence of Serine/threonine-protein kinase SIK1 (Homo sapiens) (P57059 whole entry): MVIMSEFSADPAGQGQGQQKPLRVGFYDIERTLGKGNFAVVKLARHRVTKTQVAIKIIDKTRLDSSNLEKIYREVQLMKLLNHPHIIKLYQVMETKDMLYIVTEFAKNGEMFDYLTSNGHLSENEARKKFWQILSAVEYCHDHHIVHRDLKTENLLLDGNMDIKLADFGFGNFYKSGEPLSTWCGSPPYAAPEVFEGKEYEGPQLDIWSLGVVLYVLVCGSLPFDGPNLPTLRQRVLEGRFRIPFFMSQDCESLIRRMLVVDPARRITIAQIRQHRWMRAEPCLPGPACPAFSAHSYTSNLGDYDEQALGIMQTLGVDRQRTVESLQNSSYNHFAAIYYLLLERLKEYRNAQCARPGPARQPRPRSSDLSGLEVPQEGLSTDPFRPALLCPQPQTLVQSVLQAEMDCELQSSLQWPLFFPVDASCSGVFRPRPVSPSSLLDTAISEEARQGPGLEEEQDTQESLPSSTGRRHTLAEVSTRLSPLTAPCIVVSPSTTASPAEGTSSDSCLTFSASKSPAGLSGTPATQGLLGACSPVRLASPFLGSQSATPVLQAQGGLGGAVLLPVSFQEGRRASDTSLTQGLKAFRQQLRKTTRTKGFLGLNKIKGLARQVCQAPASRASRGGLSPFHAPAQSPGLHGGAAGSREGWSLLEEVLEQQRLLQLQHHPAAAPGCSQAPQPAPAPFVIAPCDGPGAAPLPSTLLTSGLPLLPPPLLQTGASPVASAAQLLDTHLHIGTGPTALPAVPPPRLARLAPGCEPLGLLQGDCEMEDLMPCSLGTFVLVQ
Sequence of Ribosomal protein S6 kinase alpha-1 (Homo sapiens) (Q15418 whole entry): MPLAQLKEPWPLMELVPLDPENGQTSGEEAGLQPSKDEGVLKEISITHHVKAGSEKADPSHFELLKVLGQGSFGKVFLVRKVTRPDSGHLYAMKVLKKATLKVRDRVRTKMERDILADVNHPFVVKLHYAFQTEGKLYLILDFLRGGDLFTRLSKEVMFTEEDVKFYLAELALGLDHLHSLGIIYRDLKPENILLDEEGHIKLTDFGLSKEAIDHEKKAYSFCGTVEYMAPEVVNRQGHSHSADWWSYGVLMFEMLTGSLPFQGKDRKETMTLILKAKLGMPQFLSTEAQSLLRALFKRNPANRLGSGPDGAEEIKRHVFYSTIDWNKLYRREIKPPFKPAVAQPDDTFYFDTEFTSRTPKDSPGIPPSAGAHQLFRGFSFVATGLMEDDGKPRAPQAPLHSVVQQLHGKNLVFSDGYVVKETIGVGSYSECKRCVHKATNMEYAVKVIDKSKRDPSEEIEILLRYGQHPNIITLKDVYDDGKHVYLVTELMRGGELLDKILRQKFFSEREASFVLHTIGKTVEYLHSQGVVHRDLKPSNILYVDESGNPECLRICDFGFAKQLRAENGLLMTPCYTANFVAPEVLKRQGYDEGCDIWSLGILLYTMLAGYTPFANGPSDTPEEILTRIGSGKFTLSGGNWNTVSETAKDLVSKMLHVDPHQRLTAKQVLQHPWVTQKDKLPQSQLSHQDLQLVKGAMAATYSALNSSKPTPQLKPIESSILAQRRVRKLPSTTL
Sequence of Citron Rho-interacting kinase (Homo sapiens) (O14578 whole entry): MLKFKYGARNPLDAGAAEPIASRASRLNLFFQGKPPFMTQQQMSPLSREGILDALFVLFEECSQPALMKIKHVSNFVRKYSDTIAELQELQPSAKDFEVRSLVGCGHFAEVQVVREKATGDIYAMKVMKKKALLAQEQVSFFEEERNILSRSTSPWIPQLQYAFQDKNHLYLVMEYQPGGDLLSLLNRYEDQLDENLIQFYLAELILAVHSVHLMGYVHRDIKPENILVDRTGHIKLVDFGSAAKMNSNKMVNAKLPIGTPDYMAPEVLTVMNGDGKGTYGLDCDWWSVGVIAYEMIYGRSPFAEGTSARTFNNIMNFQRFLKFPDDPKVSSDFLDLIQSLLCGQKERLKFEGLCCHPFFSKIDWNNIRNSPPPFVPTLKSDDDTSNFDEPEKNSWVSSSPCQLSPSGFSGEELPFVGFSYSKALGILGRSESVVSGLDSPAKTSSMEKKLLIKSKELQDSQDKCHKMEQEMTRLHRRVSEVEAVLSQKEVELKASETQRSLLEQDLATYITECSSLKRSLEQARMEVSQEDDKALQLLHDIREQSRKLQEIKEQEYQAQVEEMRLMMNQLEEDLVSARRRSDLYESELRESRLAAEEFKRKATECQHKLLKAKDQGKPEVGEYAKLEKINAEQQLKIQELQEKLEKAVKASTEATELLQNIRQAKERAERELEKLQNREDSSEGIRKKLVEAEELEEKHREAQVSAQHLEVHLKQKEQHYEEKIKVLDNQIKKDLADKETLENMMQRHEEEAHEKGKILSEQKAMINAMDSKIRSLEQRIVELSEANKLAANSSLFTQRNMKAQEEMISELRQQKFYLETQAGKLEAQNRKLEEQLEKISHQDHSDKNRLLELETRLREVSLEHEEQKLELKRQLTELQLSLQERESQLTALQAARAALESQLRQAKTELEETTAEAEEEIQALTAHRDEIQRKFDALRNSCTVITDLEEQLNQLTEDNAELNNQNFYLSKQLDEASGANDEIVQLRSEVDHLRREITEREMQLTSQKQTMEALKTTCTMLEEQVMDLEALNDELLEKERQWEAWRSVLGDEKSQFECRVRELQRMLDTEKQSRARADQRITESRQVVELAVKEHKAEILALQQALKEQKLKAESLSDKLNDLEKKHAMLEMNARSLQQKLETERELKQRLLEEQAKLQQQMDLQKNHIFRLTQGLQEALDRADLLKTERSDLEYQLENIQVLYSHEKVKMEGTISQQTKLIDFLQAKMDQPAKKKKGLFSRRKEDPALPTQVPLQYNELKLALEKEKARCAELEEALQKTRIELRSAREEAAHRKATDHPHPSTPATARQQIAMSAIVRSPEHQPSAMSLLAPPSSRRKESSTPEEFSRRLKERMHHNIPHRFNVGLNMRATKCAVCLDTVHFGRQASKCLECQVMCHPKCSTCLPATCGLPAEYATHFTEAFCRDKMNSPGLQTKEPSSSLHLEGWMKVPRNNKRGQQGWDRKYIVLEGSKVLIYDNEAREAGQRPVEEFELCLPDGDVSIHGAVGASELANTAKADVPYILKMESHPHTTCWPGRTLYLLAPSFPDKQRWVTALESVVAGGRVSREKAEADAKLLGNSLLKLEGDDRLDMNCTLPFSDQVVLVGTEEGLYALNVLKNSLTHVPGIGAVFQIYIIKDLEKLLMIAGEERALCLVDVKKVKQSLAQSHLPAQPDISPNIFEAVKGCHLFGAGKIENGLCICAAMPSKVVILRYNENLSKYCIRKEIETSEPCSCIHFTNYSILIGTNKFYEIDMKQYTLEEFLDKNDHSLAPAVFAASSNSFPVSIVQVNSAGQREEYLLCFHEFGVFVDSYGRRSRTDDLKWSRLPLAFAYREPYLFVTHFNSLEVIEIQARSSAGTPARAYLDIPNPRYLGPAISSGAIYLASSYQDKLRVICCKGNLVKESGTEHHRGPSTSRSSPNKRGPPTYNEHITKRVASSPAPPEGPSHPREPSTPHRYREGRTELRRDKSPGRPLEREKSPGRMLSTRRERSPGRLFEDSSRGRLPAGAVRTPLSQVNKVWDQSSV
Sequence of Phosphatidylinositol 4,5-bisphosphate 3-kinase catalytic subunit alpha isoform (Homo sapiens), P42336 [H1047L] (P42336 whole entry H1047L, canonical isoform): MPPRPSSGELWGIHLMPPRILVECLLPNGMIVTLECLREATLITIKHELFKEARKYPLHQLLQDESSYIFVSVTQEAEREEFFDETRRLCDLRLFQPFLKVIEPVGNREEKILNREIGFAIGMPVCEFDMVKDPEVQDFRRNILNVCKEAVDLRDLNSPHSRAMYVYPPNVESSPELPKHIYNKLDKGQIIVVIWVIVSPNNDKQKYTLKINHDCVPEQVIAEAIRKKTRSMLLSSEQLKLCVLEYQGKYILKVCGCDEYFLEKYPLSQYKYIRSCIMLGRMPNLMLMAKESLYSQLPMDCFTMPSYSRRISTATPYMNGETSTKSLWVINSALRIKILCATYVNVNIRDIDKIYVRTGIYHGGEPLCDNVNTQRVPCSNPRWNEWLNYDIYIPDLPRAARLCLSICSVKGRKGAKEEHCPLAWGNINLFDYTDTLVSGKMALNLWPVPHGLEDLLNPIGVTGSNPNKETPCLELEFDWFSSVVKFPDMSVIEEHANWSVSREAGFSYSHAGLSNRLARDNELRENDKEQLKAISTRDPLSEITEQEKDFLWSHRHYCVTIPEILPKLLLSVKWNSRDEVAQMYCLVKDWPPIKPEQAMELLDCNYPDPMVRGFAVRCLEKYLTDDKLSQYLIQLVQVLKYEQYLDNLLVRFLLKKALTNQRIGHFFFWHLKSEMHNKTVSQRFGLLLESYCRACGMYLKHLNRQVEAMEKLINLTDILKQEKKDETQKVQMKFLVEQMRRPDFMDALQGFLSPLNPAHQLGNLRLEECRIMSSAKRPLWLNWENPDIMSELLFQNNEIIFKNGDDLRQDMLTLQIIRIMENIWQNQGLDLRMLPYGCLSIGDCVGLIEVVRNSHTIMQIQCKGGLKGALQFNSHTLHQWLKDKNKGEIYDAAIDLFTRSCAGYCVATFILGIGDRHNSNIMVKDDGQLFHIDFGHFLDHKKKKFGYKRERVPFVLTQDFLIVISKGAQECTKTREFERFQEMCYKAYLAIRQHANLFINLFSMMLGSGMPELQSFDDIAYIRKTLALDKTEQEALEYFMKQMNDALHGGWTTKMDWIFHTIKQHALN
Sequence of Serine/threonine-protein kinase pim-1 (Homo sapiens) (P11309 whole entry, looked up): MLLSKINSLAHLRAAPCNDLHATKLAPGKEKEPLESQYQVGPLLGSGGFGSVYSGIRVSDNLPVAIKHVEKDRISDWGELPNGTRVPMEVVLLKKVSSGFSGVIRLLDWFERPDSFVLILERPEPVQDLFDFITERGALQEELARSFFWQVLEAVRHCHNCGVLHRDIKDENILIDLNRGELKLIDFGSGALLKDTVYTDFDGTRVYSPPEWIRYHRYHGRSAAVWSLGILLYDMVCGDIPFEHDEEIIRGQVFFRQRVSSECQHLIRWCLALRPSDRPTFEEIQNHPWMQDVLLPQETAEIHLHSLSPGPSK
Sequence of Phosphatidylinositol 4,5-bisphosphate 3-kinase catalytic subunit alpha isoform (Homo sapiens) (P42336 whole entry, canonical isoform): as the sequence (P42336 whole entry H1047L, canonical isoform) above, with L1047H counted along it

SMILES: O=C(Nc1cccnn1)N1CC(C/C=C/c2cncc(Oc3ccc(C(F)(F)F)cn3)n2)C1
- residual activity [1]: 100%
- residual activity [2]: 100%
- residual activity [3]: 100%
- residual activity [4]: 97%
- residual activity [5]: 100%
- inhibition [6]: 7.85%
- residual activity [7]: 100%
- residual activity [8]: 58%
- residual activity [9]: 100%
- residual activity [10]: 100%
- residual activity [11]: 100%
- residual activity [12]: 100%
- inhibition [13]: -7.53%
- residual activity [14]: 87%
- residual activity [15]: 100%
- residual activity [16]: 100%
- residual activity [17]: 53%
- residual activity [18]: 100%
- residual activity [19]: 100%
- residual activity [20]: 100%
- residual activity [21]: 90%
- residual activity [22]: 95%
- residual activity [23]: 1.4%
- residual activity [24]: 92%
- residual activity [25]: 100%
- inhibition [26]: 0.26%
- residual activity [27]: 100%
- residual activity [28]: 100%
- residual activity [29]: 100%
- residual activity [30]: 91%
- residual activity [31]: 100%
- residual activity [32]: 71%
- residual activity [33]: 95%
- inhibition [34]: 17.3%
- residual activity [35]: 100%
- residual activity [36]: 96%
- residual activity [37]: 82%
- residual activity [38]: 100%
- residual activity [39]: 72%
- residual activity [40]: 85%
- residual activity [41]: 99%
- residual activity [42]: 87%
- residual activity [43]: 100%

SMILES: O=C(Nc1cccnn1)N1CCC(=Cc2cccc(Oc3ccc(C(F)(F)F)cn3)c2)CC1
- residual activity [1]: 100%
- residual activity [2]: 69%
- residual activity [3]: 74%
- residual activity [4]: 83%
- residual activity [5]: 100%
- inhibition [6]: 28.4%
- residual activity [7]: 100%
- residual activity [8]: 100%
- residual activity [9]: 100%
- residual activity [10]: 77%
- residual activity [11]: 78%
- residual activity [12]: 79%
- inhibition [13]: 7.38%
- residual activity [14]: 100%
- residual activity [15]: 100%
- residual activity [16]: 100%
- residual activity [17]: 100%
- residual activity [18]: 100%
- residual activity [19]: 100%
- residual activity [20]: 100%
- residual activity [21]: 100%
- residual activity [22]: 83%
- residual activity [23]: 100%
- residual activity [24]: 92%
- residual activity [25]: 100%
- inhibition [26]: 27.5%
- residual activity [27]: 100%
- residual activity [28]: 100%
- residual activity [29]: 100%
- residual activity [30]: 85%
- residual activity [31]: 89%
- residual activity [32]: 100%
- residual activity [33]: 81%
- inhibition [34]: 7.35%
- residual activity [35]: 61%
- residual activity [36]: 100%
- residual activity [37]: 100%
- residual activity [38]: 100%
- residual activity [39]: 100%
- residual activity [40]: 100%
- residual activity [41]: 79%
- residual activity [42]: 100%
- residual activity [43]: 86%

Reference: ChEMBL document CHEMBL4507297, “Data for DCP probe PF-04457845” (2021)
